Measured values published in patent US8658604B2, “Template-fixed beta-hairpin peptidomimetics with protease inhibitory activity” (Polyphor Ltd, priority 2005, dated 2014).
Where a SMILES comes first, the peptide text is derived from it.

How the values were obtained:
[1] = biological target: Trypsin, from human pancreas (Homo sapiens, UniProt P07477); assay: Enzymatic assay, trypsin; conditions: at 100 μM
Chymase, from human skin = biological target: T1, Chymase, from human skin (Homo sapiens, UniProt P23946); assay: Enzymatic assay, chymase
T1 sequence (P23946 22-247): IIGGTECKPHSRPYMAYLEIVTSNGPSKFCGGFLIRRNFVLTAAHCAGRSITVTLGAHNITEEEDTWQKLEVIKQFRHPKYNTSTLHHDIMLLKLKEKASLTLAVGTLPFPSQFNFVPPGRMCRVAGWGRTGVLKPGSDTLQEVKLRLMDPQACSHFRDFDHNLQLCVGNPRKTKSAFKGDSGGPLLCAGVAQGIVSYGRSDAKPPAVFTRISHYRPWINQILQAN

[2] = biological target: T2, Elastase from human neutrophils (Homo sapiens, UniProt P08246); assay: Enzymatic assay, elastase; conditions: Elastase IC50
T2 sequence (P08246 30-267): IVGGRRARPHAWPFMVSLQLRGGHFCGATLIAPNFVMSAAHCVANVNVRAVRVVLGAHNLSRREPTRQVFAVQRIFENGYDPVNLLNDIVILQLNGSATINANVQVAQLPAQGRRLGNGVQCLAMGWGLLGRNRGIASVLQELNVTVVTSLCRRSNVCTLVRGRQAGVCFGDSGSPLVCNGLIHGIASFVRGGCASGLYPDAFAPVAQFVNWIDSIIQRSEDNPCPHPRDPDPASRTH

[3] = biological target: Thrombin, from Human Plasma (Homo sapiens, UniProt P00734); assay: Enzymatic assay, thrombin
[4] = tested on: Tryptase, from human lung; assay: Enzymatic assay, tryptase; conditions: at 100 μM
[5] = biological target: Urokinase from human urine (Homo sapiens, UniProt P00749); assay: Enzymatic assay, urokinase
[6] = biological target: T3, CathepsinG, from human neutrophils (Homo sapiens, UniProt P08311); assay: Enzymatic assay, cathepsin G; conditions: for IC50: Cathepsin G IC50
T3 sequence (P08311 21-244): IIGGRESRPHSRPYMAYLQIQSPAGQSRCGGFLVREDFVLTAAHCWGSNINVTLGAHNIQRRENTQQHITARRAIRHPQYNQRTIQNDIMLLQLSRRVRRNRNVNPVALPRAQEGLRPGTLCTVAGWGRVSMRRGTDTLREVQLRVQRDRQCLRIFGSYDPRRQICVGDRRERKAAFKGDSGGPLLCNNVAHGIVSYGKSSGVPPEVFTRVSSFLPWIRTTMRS

[7] = biological target: Chymotrypsin, from human pancreas (Homo sapiens, UniProt P17538); assay: Enzymatic assay, chymotrypsin
Chain of Chymotrypsin, from human pancreas (P17538 19-263): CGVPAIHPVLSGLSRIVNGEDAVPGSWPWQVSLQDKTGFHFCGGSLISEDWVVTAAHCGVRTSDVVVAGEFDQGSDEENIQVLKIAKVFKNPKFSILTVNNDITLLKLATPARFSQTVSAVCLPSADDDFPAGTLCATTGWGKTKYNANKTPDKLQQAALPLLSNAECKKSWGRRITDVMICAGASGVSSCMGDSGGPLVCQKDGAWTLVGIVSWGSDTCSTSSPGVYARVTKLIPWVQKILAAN

[8] = biological target: Coagulation Factor Xa, from uman plasma (Homo sapiens, UniProt P00742); assay: Enzymatic assay, coagulation factor Xa
Chain of Coagulation Factor Xa, from uman plasma (P00742 235-488 limits assumed): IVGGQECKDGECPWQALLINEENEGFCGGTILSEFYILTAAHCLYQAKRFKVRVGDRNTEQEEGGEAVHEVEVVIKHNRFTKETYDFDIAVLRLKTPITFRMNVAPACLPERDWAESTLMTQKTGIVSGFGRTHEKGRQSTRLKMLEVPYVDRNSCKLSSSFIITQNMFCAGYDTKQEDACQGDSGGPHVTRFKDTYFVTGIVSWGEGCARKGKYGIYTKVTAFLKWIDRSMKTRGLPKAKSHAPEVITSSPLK
Chain of Coagulation Factor Xa, from uman plasma (P00742 41-179 limits assumed): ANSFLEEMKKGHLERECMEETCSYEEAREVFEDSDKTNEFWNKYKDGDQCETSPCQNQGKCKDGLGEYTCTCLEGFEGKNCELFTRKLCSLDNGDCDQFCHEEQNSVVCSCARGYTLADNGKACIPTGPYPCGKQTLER

[9] = at 100 μM (stated in cell instead of IC50)

Structure (SMILES)	Trypsin at 100 μM % [1] [%]	Chymase at 100 μM % (Chymase, from human skin) [%]	IC50 [2] [nM]	Thrombin at 100 μM % [3] [%]	Tryptase At 100 μM % [4] [%]	Urokinase at 100 μM % [5] [%]	IC50 [6] [nM]	Chymotrypsin at 100 μM % [7] [%]	FXa at 100 μM % [8] [%]	Tryptase at 100 μM % [4] [%]	IC50 [7] [nM]	Cathepsin G at 100 μM % [6, 9] [at 100%]	Cathepsin G at 100 μM % ([6]; at 100 μM) [at 100%]
CCCC[C@@H]1NC(=O)[C@@H]2CCCN2C(=O)[C@H]2CCCN2C(=O)[C@H](Cc2ccc(O)cc2)NC(=O)[C@@H]2CSSC[C@H](NC1=O)C(=O)N[C@@H]([C@@H](C)O)C(=O)N[C@@H](C)C(=O)N[C@@H](CO)C(=O)N[C@@H]([C@@H](C)CC)C(=O)N1CCC[C@H]1C(=O)N1CC(NC(=O)c3ccccc3)C[C@H]1C(=O)N[C@@H](CCC(N)=O)C(=O)N2 (single isomer, unassigned) [Ex. 138]	12.2	4.6	19	17.1	0	14.4	43900	77.1	12.6				
CC[C@H](C)[C@@H]1NC(=O)[C@@H]2CCCN2C(=O)[C@@H]2CCCN2C(=O)[C@H](CC(=O)O)NC(=O)[C@H](CO)NC(=O)[C@H](CCCCN)NC(=O)[C@H]([C@@H](C)O)NC(=O)[C@@H]2CSSC[C@H](NC1=O)C(=O)N[C@@H](Cc1ccc(O)cc1)C(=O)N1CCC[C@@H]1C(=O)N1CCC[C@H]1C(=O)N[C@@H](CCc1ccccc1)C(=O)N2 [Ex. 30] (HELM PEPTIDE1{[O=C([C@H](CCc1ccccc1)N[*:1])[*:2]].C.T.K.S.D.P.P.I.C.Y.[dP].P}$PEPTIDE1,PEPTIDE1,2:R3-10:R3|PEPTIDE1,PEPTIDE1,1:R1-13:R2$$$V2.0)	98	0	49900	2		9	39	49	3				
CC[C@H](C)[C@@H]1NC(=O)[C@@H]2CCCN2C(=O)[C@@H]2CCCN2C(=O)[C@H](CC(=O)O)NC(=O)[C@H](CO)NC(=O)[C@H](CCCCN)NC(=O)[C@H]([C@@H](C)O)NC(=O)[C@@H]2CSSC[C@H](NC1=O)C(=O)N[C@@H](CO)C(=O)N[C@H](C)C(=O)N1CCC[C@H]1C(=O)N[C@@H](Cc1ccccc1)C(=O)N2 [Ex. 49] (HELM PEPTIDE1{F.C.T.K.S.D.P.P.I.C.S.[dA].P}$PEPTIDE1,PEPTIDE1,2:R3-10:R3|PEPTIDE1,PEPTIDE1,1:R1-13:R2$$$V2.0)	96	0	> 10000	7.9		6.2	82	0		30.5			
CCCC[C@@H]1NC(=O)[C@@H]2CCCN2C(=O)[C@H]2CCCN2C(=O)[C@H](Cc2ccc(O)cc2)NC(=O)[C@@H]2CSSC[C@H](NC1=O)C(=O)N[C@@H]([C@@H](C)O)C(=O)N[C@@H](C)C(=O)N[C@@H](CO)C(=O)N[C@@H](CC(C)(C)C)C(=O)N1CCC[C@H]1C(=O)N1CCC[C@H]1C(=O)N[C@@H](CCC(N)=O)C(=O)N2 [Ex. 85] (HELM PEPTIDE1{[Nle].C.T.A.S.[CC(C)(C)C[C@H](N[*:1])C(=O)[*:2]].P.P.Q.C.Y.[dP].P}$PEPTIDE1,PEPTIDE1,2:R3-10:R3|PEPTIDE1,PEPTIDE1,1:R1-13:R2$$$V2.0)	0		28	12.6					25.6		> 20000		
CCCC[C@@H]1NC(=O)[C@@H]2CCCN2C(=O)[C@H]2CCCN2C(=O)[C@H](Cc2ccc(O)cc2)NC(=O)[C@@H]2CSSC[C@H](NC1=O)C(=O)N[C@@H](C)C(=O)N[C@@H](C)C(=O)N[C@@H](CO)C(=O)N[C@@H]([C@@H](C)CC)C(=O)N1CCC[C@H]1C(=O)N1CCC[C@H]1C(=O)N[C@@H](CCC(N)=O)C(=O)N2 [Ex. 86] (HELM PEPTIDE1{[Nle].C.A.A.S.I.P.P.Q.C.Y.[dP].P}$PEPTIDE1,PEPTIDE1,2:R3-10:R3|PEPTIDE1,PEPTIDE1,1:R1-13:R2$$$V2.0)	0	0	26	10.7					24.8	0	> 100000	47	
CCCC[C@@H]1NC(=O)[C@H](CCC(N)=O)NC(=O)[C@H]2CCCN2C(=O)[C@H](Cc2ccc(O)cc2)NC(=O)[C@@H]2CSSC[C@H](NC1=O)C(=O)N[C@@H]([C@@H](C)O)C(=O)N[C@@H](C)C(=O)N[C@@H](CO)C(=O)N[C@@H]([C@@H](C)CC)C(=O)N1CCC[C@H]1C(=O)N1CCC[C@H]1C(=O)N[C@@H](CCC(N)=O)C(=O)N2 [Ex. 123] (HELM PEPTIDE1{[Nle].C.T.A.S.I.P.P.Q.C.Y.[dP].Q}$PEPTIDE1,PEPTIDE1,2:R3-10:R3|PEPTIDE1,PEPTIDE1,1:R1-13:R2$$$V2.0)	7.9	0	14	2.7		7.6	35200		0		15000		
CCCC[C@@H]1NC(=O)[C@H](CCC(=O)O)NC(=O)[C@@H](CCCCN)NC(=O)[C@H](Cc2ccc(O)cc2)NC(=O)[C@@H]2CSSC[C@H](NC1=O)C(=O)N[C@@H]([C@@H](C)O)C(=O)N[C@@H](C)C(=O)N[C@@H](CO)C(=O)N[C@@H]([C@@H](C)CC)C(=O)N1CCC[C@H]1C(=O)N1CCC[C@H]1C(=O)N[C@@H](CCC(N)=O)C(=O)N2 [Ex. 127] (HELM PEPTIDE1{[Nle].C.T.A.S.I.P.P.Q.C.Y.[dK].E}$PEPTIDE1,PEPTIDE1,2:R3-10:R3|PEPTIDE1,PEPTIDE1,1:R1-13:R2$$$V2.0)	0	1.9	29	3.7				47.2	13.3	0		64	
CCCCCCCC[C@@H]1NC(=O)[C@@H]2CCCN2C(=O)[C@H]2CCCN2C(=O)[C@H](CCC(N)=O)NC(=O)[C@@H]2CSSC[C@H](NC1=O)C(=O)N[C@@H]([C@@H](C)O)C(=O)N[C@@H](C)C(=O)N[C@@H](CO)C(=O)N[C@@H](CC1CCCCC1)C(=O)N1CCC[C@H]1C(=O)N1CC(NC(=O)c3ccccc3)C[C@H]1C(=O)N[C@@H](CCC(N)=O)C(=O)N2 (stereo partly shown) [Ex. 160] (HELM PEPTIDE1{[CCCCCCCC[C@H](N[*:1])C(=O)[*:2]].C.T.A.S.[Cha].P.[O=C(NC1C[C@@H](C(=O)[*:2])N([*:1])C1)c1ccccc1].Q.C.Q.[dP].P}$PEPTIDE1,PEPTIDE1,2:R3-10:R3|PEPTIDE1,PEPTIDE1,1:R1-13:R2$$$V2.0)	3	2		23	30	14		94	1				55
CCCC[C@@H]1NC(=O)[C@H](CCC(N)=O)NC(=O)[C@@H](CCC(N)=O)NC(=O)[C@H](CCC(N)=O)NC(=O)[C@@H]2CSSC[C@H](NC1=O)C(=O)N[C@@H]([C@@H](C)O)C(=O)N[C@@H](C)C(=O)N[C@@H](CO)C(=O)N[C@@H](CC1CCCCC1)C(=O)N1CCC[C@H]1C(=O)N1CC(NC(=O)c3ccccc3)C[C@H]1C(=O)N[C@@H](CCC(N)=O)C(=O)N2 (stereo partly shown) [compound 176] (HELM PEPTIDE1{[Nle].C.T.A.S.[Cha].P.[O=C(NC1C[C@@H](C(=O)[*:2])N([*:1])C1)c1ccccc1].Q.C.Q.[dQ].Q}$PEPTIDE1,PEPTIDE1,2:R3-10:R3|PEPTIDE1,PEPTIDE1,1:R1-13:R2$$$V2.0)	7	2		15	17	8		55	1				69
